Measured values taken from patent US20100209846A1, “NEGATIVE-WORKING IMAGEABLE ELEMENTS” (priority 2009, published 2010).

Assay: Solubility of contrast dye in water
Format: physicochemical

Compound | Solubility of contrast dye in 1 liter water
CCCCCCC(CCCCCC)c1ccc(/C=C2/C(=C(C#N)C#N)c3ccccc3S2(=O)=O)c(C)c1 | 0.25 g
CN(C)c1ccc(C(=C2C=CC(=[N+](C)C)C=C2)c2ccc(N(C)C)cc2)cc1 [Crystal Violet] | 4 g
